# Assay results: a melting point compilation (Tetko et al.; mined from patent text by program, amines drawn as free bases though some values may be those of a salt)
row,melting point [°C],SMILES
1,187 to 191,O=C(CC1CC1)NC[C@H]1CN(c2ccc3c(c2)CCCc2cnoc2-3)C(=O)O1
2,142 to 144,CCOC(=O)c1cccc(NC(=O)C(CO)NS(=O)(=O)c2ccc(Cl)cc2)c1 (racemic)
3,76 to 82,CC(C)(C)OC(=O)CN(CC(=O)O)CC(=O)OC(C)(C)C
4,134,Nc1nc(N)c2c(n1)CCC(Cc1ccccc1Cl)C2 (stereo not drawn)
5,128 to 130,COCCCNC(N)=O
6,69,Clc1ccc(N2CCCCC2)cc1
7,144 to 146,Cc1ccc(C(=C/C=C/C(=O)NCCCCc2cccnc2)c2ccc(C)cc2)cc1
8,68 to 70,C=CCc1ccccc1OC[C@@H](O)CNCCc1ccc(NC2CCN(S(=O)(=O)c3ccc(N(CCCCCC)C(N)=O)cc3)CC2)cc1
9,68 to 70,CC1(c2n[nH]c(=O)o2)CC1
10,203 to 204,"CC1CC(=O)NN=C1c1ccc(N)cc1 (single isomer, unassigned; (-))"
11,151 to 152,Cc1ccc(P(=O)(C(=O)c2c(C)cc(C)cc2C)C(=O)c2c(C)cc(C)cc2C)cc1
12,229 to 232,Nc1cc(O)ccc1/C=C/c1ccc(O)cc1
13,125 to 135,Cc1noc(NS(=O)(=O)c2ccccc2-c2ccc(-c3ncco3)cc2CN(C)C(=O)c2ccccc2Cl)c1C
14,198 to 199,CCN(CC)c1ccc2nc3c4ccccc4c(=Nc4cccnc4)cc-3oc2c1
15,138 to 140,CCN(C(=O)N(C)C)c1ccccc1-c1ccc2nnc(C)n2n1
16,201 to 204,CC12CCC(=O)C=C1CCC1C2CCC2(C)C(n3cnc4ccccc43)=CCC12 (stereo not drawn)
17,106,CCN(CC)C(=O)CCc1nc(-c2cccs2)nc2ccccc12
18,247,CN(C)C(=O)C=Cc1ccc(C=CC(=O)N(C)C)cc1
19,185 to 186,Cc1cn(C2OC(CO)C(O)C2F)c(=O)[nH]c1=O (stereo not drawn)
20,131 to 133,CCCCOP(=O)(CCCCC1(C(=O)NCCC)c2ccccc2-c2cccnc21)OCCCC (stereo not drawn)
21,96 to 97,COc1ccc2c(c1)CNCCO2
22,113 to 120,COc1ccc(C(C(c2ccccc2)c2ccc(F)cc2)C(F)(F)F)cc1 (stereo not drawn)
23,141,Fc1ccccc1-c1nc(Cl)nc2ccccc12
24,227 to 229,CCCc1nn(C)c2c(=O)[nH]c(-c3cc4cccc(OCC)c4o3)nc12

row,melting point [°C],SMILES
1,136 to 140,CCOC1CC2(C)C(CCC3C2C(=NO)CC2(C)C3CCC23OCCO3)CC1O (stereo not drawn)
2,81.5 to 85.5,CN(C)CCCOc1ccc(N(C(=O)c2ccc(Cl)cc2)c2ccccc2)cc1
3,244,COc1cccc(-n2nc(C)c3ccc([N+](=O)[O-])cc32)c1C#N
4,184 to 185,O=c1nc(-c2ccccc2)c2cc(Cl)ccc2n1CC(F)(F)F
5,335 to 337,O=c1c2c(c1=O)Nc1c(Cl)cc(C(F)(F)F)cc1N2
6,201 to 203,O=c1nc(N2CCN(c3cccc(C(F)(F)F)c3)CC2)sc2c([N+](=O)[O-])cc(C(F)(F)F)cc12
7,98 to 100,Cc1nc(OC(C)C)c([N+](=O)[O-])c(N2CCN(c3ccc(F)cc3)CC2)n1
8,125 to 128,CCN(CC)c1nc(N)c2ccccc2n1
9,193 to 194,COc1cc(COc2nn(-c3ccccc3)cc2C=O)ccc1OCc1nc(-c2cccc(O)c2)oc1C
10,218 to 220,O=C1Cc2cc(CCN3CCN(c4nsc5ccccc45)CC3)c(Cl)cc2N1
11,120 to 121,COc1ccc(C(=O)[C@H]2CCCC[C@H]2C(=O)O)cc1OC1CCCC1 (relative stereo)
12,171,Cc1cccc(C2(C(N)=S)CCCS2)n1 (stereo not drawn)
13,185 to 187,COc1cc(-c2n[nH]c3c2Cc2ccccc2-3)cc(OC)c1OC
14,103 to 105,COC(=O)c1c(Oc2ccccc2N)c2ccccc2n1C
15,162 to 164,O=C(OC(=O)c1cccnc1)c1cccnc1
16,204 to 205,CC(C)N1CCC(CNc2ccc(NS(C)(=O)=O)cc2C(=O)Nc2ccc(Cl)cn2)CC1
17,> 260,O=C(Nc1nc2ccc(Sc3cnc4ncc(NCc5ccccc5)cn34)cc2s1)C1CC1
18,164 to 166,NC(=O)CCc1ccncc1
19,90 to 93,C#CCN(Cc1cc2c(=O)n(CCN(C)C)c(CN3CCCCC3)nc2cc1Cl)c1ccc(C(=O)NCc2cccnc2)cc1
20,176 to 178,Cc1ccc(S(=O)(=O)N(C)c2ccc(Cl)cc2C(N)=O)cc1
21,127 to 128,CC(=O)Nc1cc(F)ccc1C
22,112 to 114,COC(=O)C(C)(C)C(=O)OCOC1=C(C(=O)Nc2ccccn2)N(C)S(=O)(=O)c2ccccc21
23,147 to 150,CCc1oc2ccc(C)cc2c1C(=O)c1ccc(Cl)c(S(N)(=O)=O)c1
24,104 to 110,COc1cc(OC)nc(OC(C(=O)O)C(C)(C)CO)n1 (stereo not drawn)

row,melting point [°C],SMILES
1,40 to 42,C[C@@H](C(N)=O)c1ccc(NS(C)(=O)=O)c(F)c1
2,57 to 58,CSCCOC(=O)CSc1cc(N=c2sc(=O)n3n2CCCC3)ccc1Cl
3,186 to 188,CCN(CC)C(=O)COc1cc(N)c(Cl)cc1C(=O)O
4,> 230,Cc1cc(C)c(C2C(=O)C(Cc3ccc(Cl)cc3)N(C)C2=O)c(C)c1 (stereo not drawn)
5,219 to 221,COc1cc2c(Nc3ccc(Sc4nccn4C)c(Cl)c3)c(C#N)cnc2cc1N1CCC(N2CCOCC2)CC1
6,93 to 94,COc1ccc(C=CC(=O)c2cccc(O)c2)cc1
7,178 to 179,COc1cc(OC)c2c(C)c(CCN3CCC(O)(c4ccccc4)CC3)c(=O)oc2c1
8,192,COC(=O)c1ccc(-c2ccc(I)c(O)c2)cc1
9,106 to 110,COc1cc2c(cc1OC)N(C(=O)OCc1ccccc1)C(C)C(=CO)C2=O (stereo not drawn)
10,100 to 101,COc1ccc(Br)c2c1C[C@H](N(Cc1ccccc1)Cc1ccccc1)CC2
11,119 to 125,Fc1cccc(OC2CN([C@H]3CC[C@@H](c4c[nH]c5ccc(F)cc54)CC3)C2)c1
12,144 to 145,Cc1nn(-c2ccc(Cl)cc2)c(C)c1C(=O)N[C@H](C)[C@](O)(Cn1cncn1)c1ccc(F)cc1F
13,190 to 202,CC12CCC(=O)C=C1NCC1C2CCC2(C)C(C(=S)c3ccccn3)CCC12 (stereo not drawn)
14,98 to 100,COc1ccc(NC(=O)CN2CCN(c3cccc(C(F)(F)F)c3)CC2)c([N+](=O)[O-])c1
15,149 to 151,CCc1nc2c(c(C)c(C)n3nnnc23)n1CCOCCNC(=O)CCCCl
16,105 to 109,CCC(CC(Cc1cccc2ccccc12)C(=O)N[C@@H](Cc1c[nH]cn1)C(=O)N[C@H](C=NNC(N)=O)CC(C)C)c1ccccc1 (stereo partly drawn)
17,147 to 149,O=C(O)c1ccccc1Oc1ccccc1O
18,255 to 258,COc1cccc2c3c([nH]c12)CCNC3=O
19,149 to 150,CC(C)CCOc1ccc(-c2c(Cl)c(CCl)nc3sc4c(c23)CCN(Cc2ccccc2)C4)cc1
20,148 to 155,Cc1ccc(C(=O)NC(CF)NC(=S)Nc2cccc([N+](=O)[O-])c2)cc1 (stereo not drawn)
21,175 to 176,O=C(O)CCc1cc(OCCCc2cn(-c3ccc(C(F)(F)F)cn3)nc2-c2ccccc2)nn1-c1ccccc1
22,109 to 110,CC(=O)NC[C@H]1CN(c2ccc(C3CCNCC3)c(F)c2)C(=O)O1
23,205 to 206,COc1ccc2c(=O)n(S(=O)(=O)c3ccc(Cl)cc3)c(=O)[nH]c2c1
24,71 to 73,Cc1onc(-c2ccc(Cl)o2)c1-c1ccccc1

row,melting point [°C],SMILES
1,190 to 192,OC(Cc1ccnc2ccccc12)C(Cl)(Cl)Cl (stereo not drawn)
2,74 to 76,COc1c([N+](=O)[O-])ccc(C=O)c1OS(=O)(=O)c1ccccc1
3,247 to 248,COc1cc2nc3c(c(-c4cc(OC)c(O)c(OC)c4)c2cc1OC)C(=O)OC3
4,154 to 155,CCc1ccc2c(c1)C(C(=O)O)c1ccccc1CO2 (stereo not drawn)
5,183 to 184,COc1ccc(-c2cccn2-c2ccc(S(C)(=O)=O)cc2)cc1
6,204 to 208,O=C(O)COc1cccc2c1CCc1sc(S(=O)(=O)C(c3ccccc3F)c3ccccc3F)nc1-2
7,321 to 323,Cn1c(=O)c(-c2ccc(Cl)cc2Cl)cc2c3cc(-c4nnc(N)s4)ccc3n(C)c21
8,66,Ic1ccc(OC2CCCCO2)cc1 (stereo not drawn)
9,142 to 145,O=C(O)COc1cc2c(c(Cl)c1Cl)C(=O)C(Cl)(C1CCCCC1)C2 (stereo not drawn)
10,215 to 220,O=C(NO)c1cnc(NS(=O)(=O)c2ccc(C(=O)Nc3ccc(Cl)c(-c4ccccn4)c3)c(Cl)c2)nc1
11,248 to 250,O=C(O)c1cnn2c(-c3cccc(C(F)(F)F)c3)ccnc12
12,178 to 182,CSc1nc(Cl)c(-c2ccc(C)cc2)c(NS(=O)(=O)c2ccc(C(C)(C)C)cc2)n1
13,129 to 131,OCCNCCNc1nnc(NCCNCCO)c2cc3ccccc3cc12
14,165,O=C1O[C@@H](CO)CN1c1ccc2ncccc2c1
15,186,NC(=S)NCCN1CCC(Nc2nc3ccccc3n2Cc2ccc(F)cc2)CC1
16,124 to 127,CC(C)(C)c1ccc(S(=O)(=O)Oc2ccc(C(C)(C)c3ccc(OS(=O)(=O)c4ccc(C(C)(C)C)cc4)cc3)cc2)cc1
17,217,Cc1ccc(S(=O)(=O)N2[C@@H](C(=N)NO)CC[C@H]2c2ccc(F)cc2)cc1 (racemic)
18,131,c1cncc(N=C2SCC3Cc4ccccc4N23)c1 (racemic)
19,200 to 203,COc1ccc(-c2csc(Nc3cc4ccccc4cn3)n2)cc1OC
20,224 to 226,N#CC(C(=O)NCC(=O)O)C(=O)c1nn(-c2ccccc2)c2c1CSc1ccccc1-2 (stereo not drawn)
21,85 to 95,Cc1coc(-c2ccc(-c3ccccc3S(=O)(=O)Nc3onc(C)c3C)cc2)n1
22,233 to 234,CNC(C)C(=O)Nc1cccc2c1C(=O)c1c(NC(=O)C(C)NC)cccc1C2=O (stereo not drawn)
23,124 to 127,CN(C)CC=NC(=O)c1cnn2c(-c3cccnc3)ccnc12

row,SMILES,melting point [°C]
1,O=C(Cl)N1CCNC1=O,150
2,CNC(=O)Oc1ccc2ccccc2c1,119
3,C=C(C)CNc1cccc(-c2ccnc3c(C(=O)c4cccs4)cnn23)c1,104 to 106
